# Results as given in US9758529B2, “Fused dihydro-4H-pyrazolo[5,1-C][1,4]oxazinyl compounds and analogs for treating CNS disorders” (Sunovion Pharmaceuticals Inc., priority 2015, dated 2017).
# Counter-ions that a name gives are not always drawn.
# Tested on: mice
# Experiment: Neuropharmacological Assay (SmartCube)
# Type: in vivo
# Settings: i.p. 15 min before behavioral test; 3 doses, most efficacious dose(s) presented
SMILES,AD: ADHD (probability of class match),AG: analgesic (probability of class match),AX: anxiolytic (probability of class match),CE: cognitive enhancer (probability of class match),DP: anti-depressant (probability of class match),HA: hallucinogen (probability of class match),MS: mood stabilizer (probability of class match),PS: anti-psychotic (probability of class match),SD: sedative hypnotic (probability of class match),UN: uncharacterized CNS activity (probability of class match)
"CNCC1OCCn2nc3cc(F)ccc3c21 (stereo not drawn) [Compound 10, 1-(8-fluoro-3,4-dihydro-1H-[1,4]oxazino[4,3-b]indazol-1-yl)-N-methylmethanaminium]",+ (LOQ≦ + <5%),++ (5%≦ ++ <25%),++ (5%≦ ++ <25%),+ (LOQ≦ + <5%),++++ (50%≦ ++++),+ (LOQ≦ + <5%),+ (LOQ≦ + <5%),++ (5%≦ ++ <25%),+ (LOQ≦ + <5%),+ (LOQ≦ + <5%)
"CN1CCOC[C@H]1[C@H]1OCCn2nc3ccccc3c21 (racemic) [Compound 47, (+/−)-(3S,4R)-3-((R)-3,4-dihydro-1H-[1,4]oxazino[4,3-b]indazol-1-yl)-4-methylmorpholin-4-ium chloride]",+ (LOQ≦ + <5%),++ (5%≦ ++ <25%),++ (5%≦ ++ <25%),+ (LOQ≦ + <5%),+ (LOQ≦ + <5%),+ (LOQ≦ + <5%),+ (LOQ≦ + <5%),+ (LOQ≦ + <5%),+ (LOQ≦ + <5%),+ (LOQ≦ + <5%)
"Cl.c1ccc2c3n(nc2c1)CCOC3[C@H]1CNCCO1 (stereo partly drawn) [Compound 42, (2R)-2-(3,4-dihydro-1H-[1,4]oxazino[4,3-b]indazol-1-yl)morpholin-4-ium chloride]",+ (LOQ≦ + <5%),+ (LOQ≦ + <5%),+ (LOQ≦ + <5%),+ (LOQ≦ + <5%),+ (LOQ≦ + <5%),+ (LOQ≦ + <5%),+ (LOQ≦ + <5%),+ (LOQ≦ + <5%),+ (LOQ≦ + <5%),+ (LOQ≦ + <5%)
"Cl.NCC1OCCCn2nc3ccccc3c21 (stereo not drawn) [Compound 56, (4,5-dihydro-1H,3H-[1,4]oxazepino[4,3-b]indazol-1-yl)methanaminium chloride]",+ (LOQ≦ + <5%),+ (LOQ≦ + <5%),+ (LOQ≦ + <5%),+ (LOQ≦ + <5%),+ (LOQ≦ + <5%),+ (LOQ≦ + <5%),+ (LOQ≦ + <5%),+ (LOQ≦ + <5%),+ (LOQ≦ + <5%),+ (LOQ≦ + <5%)
"CCN(C)CC1OCCCn2nc3ccccc3c21.Cl (stereo not drawn) [Compound 53, N-((4,5-dihydro-1H,3H-[1,4]oxazepino[4,3-b]indazol-1-yl)methyl)-N-methylethanaminium chloride]",+ (LOQ≦ + <5%),+ (LOQ≦ + <5%),++ (5%≦ ++ <25%),+ (LOQ≦ + <5%),++ (5%≦ ++ <25%),+ (LOQ≦ + <5%),+ (LOQ≦ + <5%),+ (LOQ≦ + <5%),++ (5%≦ ++ <25%),++ (5%≦ ++ <25%)
"Cl.c1ccc2c3n(nc2c1)CCOC3[C@H]1CCCNC1 (stereo partly drawn) [Compound 38, (3S)-3-(3,4-dihydro-1H-[1,4]oxazino[4,3-b]indazol-1-yl)piperidin-1-ium]",+ (LOQ≦ + <5%),++ (5%≦ ++ <25%),++ (5%≦ ++ <25%),+ (LOQ≦ + <5%),+ (LOQ≦ + <5%),+ (LOQ≦ + <5%),++ (5%≦ ++ <25%),++ (5%≦ ++ <25%),+ (LOQ≦ + <5%),+ (LOQ≦ + <5%)
"c1ccc2c3n(nc2c1)CCOC3CNC1CC1 (stereo not drawn) [Compound 21, N-((3,4-dihydro-1H-[1,4]oxazino[4,3-b]indazol-1-yl)methyl)cyclopropan amine hydrogen chloride salt]",+ (LOQ≦ + <5%),++ (5%≦ ++ <25%),++ (5%≦ ++ <25%),+ (LOQ≦ + <5%),++ (5%≦ ++ <25%),+ (LOQ≦ + <5%),+ (LOQ≦ + <5%),++ (5%≦ ++ <25%),+ (LOQ≦ + <5%),+ (LOQ≦ + <5%)
"CNC[C@H]1OCCn2nc3ccccc3c21.Cl [Compound 2, (R)-(3,4-dihydro-1H-[1,4]oxazino[4,3-b]indazol-1-yl)-N-methylmethanaminium chloride]",++ (5%≦ ++ <25%),+ (LOQ≦ + <5%),++ (5%≦ ++ <25%),+ (LOQ≦ + <5%),++++ (50%≦ ++++),++++ (50%≦ ++++),+ (LOQ≦ + <5%),+ (LOQ≦ + <5%),+ (LOQ≦ + <5%),+ (LOQ≦ + <5%)
"c1ccc2c3n(nc2c1)CCOC3[C@@H]1CCCN1 (stereo partly drawn) [Compound 13, 1-((S)-pyrrolidin-2-yl)-3,4-dihydro-1H-[1,4]oxazino[4,3-b]indazole hydrochloride]",+ (LOQ≦ + <5%),+++ (25%≦ +++ <50%),++ (5%≦ ++ <25%),++ (5%≦ ++ <25%),++ (5%≦ ++ <25%),+ (LOQ≦ + <5%),++ (5%≦ ++ <25%),+ (LOQ≦ + <5%),+ (LOQ≦ + <5%),+ (LOQ≦ + <5%)
"c1ccc2c3n(nc2c1)CCOC3[C@@H]1CCN1 (stereo partly drawn) [Compound 64, (2S)-2-(3,4-dihydro-1H-[1,4]oxazino[4,3-b]indazol-1-yl)azetidin-1-ium chloride]",++++ (50%≦ ++++),++ (5%≦ ++ <25%),++ (5%≦ ++ <25%),+ (LOQ≦ + <5%),++ (5%≦ ++ <25%),+ (LOQ≦ + <5%),+ (LOQ≦ + <5%),+ (LOQ≦ + <5%),+ (LOQ≦ + <5%),+++ (25%≦ +++ <50%)
"Cl.c1ccc2c3n(nc2c1)CCOC31CCNC1 (stereo not drawn) [Compound 44, 3′,4′-dihydrospiro[pyrrolidine-3,1′-[1,4]oxazino[4,3-b]indazol]-1-ium chloride]",+ (LOQ≦ + <5%),++ (5%≦ ++ <25%),+++ (25%≦ +++ <50%),++ (5%≦ ++ <25%),++ (5%≦ ++ <25%),+ (LOQ≦ + <5%),+ (LOQ≦ + <5%),++ (5%≦ ++ <25%),+ (LOQ≦ + <5%),+ (LOQ≦ + <5%)
"Cl.c1ccc2c3n(nc2c1)CCO[C@H]3[C@@H]1COCCN1 (racemic) [Compound 46, (+/−)—(S)-3-((S)-3,4-dihydro-1H-[1,4]oxazino[4,3-b]indazol-1-yl)morpholin-4-ium chloride]",+ (LOQ≦ + <5%),++ (5%≦ ++ <25%),++ (5%≦ ++ <25%),+ (LOQ≦ + <5%),+ (LOQ≦ + <5%),+ (LOQ≦ + <5%),+ (LOQ≦ + <5%),++ (5%≦ ++ <25%),++ (5%≦ ++ <25%),++ (5%≦ ++ <25%)

# Same assay, conditions: i.p. 15 min before behavioral test; 3 doses, most efficacious dose(s) presented
row,SMILES,XG: anxiogenic (probability of class match)
1,"CNCC1OCCn2nc3cc(F)ccc3c21 (stereo not drawn) [Compound 10, 1-(8-fluoro-3,4-dihydro-1H-[1,4]oxazino[4,3-b]indazol-1-yl)-N-methylmethanaminium]",++ (5%≦ ++ <25%)
2,"CN1CCOC[C@H]1[C@H]1OCCn2nc3ccccc3c21 (racemic) [Compound 47, (+/−)-(3S,4R)-3-((R)-3,4-dihydro-1H-[1,4]oxazino[4,3-b]indazol-1-yl)-4-methylmorpholin-4-ium chloride]",+ (LOQ≦ + <5%)
3,"Cl.c1ccc2c3n(nc2c1)CCOC3[C@H]1CNCCO1 (stereo partly drawn) [Compound 42, (2R)-2-(3,4-dihydro-1H-[1,4]oxazino[4,3-b]indazol-1-yl)morpholin-4-ium chloride]",+ (LOQ≦ + <5%)
4,"Cl.NCC1OCCCn2nc3ccccc3c21 (stereo not drawn) [Compound 56, (4,5-dihydro-1H,3H-[1,4]oxazepino[4,3-b]indazol-1-yl)methanaminium chloride]",+ (LOQ≦ + <5%)
5,"CCN(C)CC1OCCCn2nc3ccccc3c21.Cl (stereo not drawn) [Compound 53, N-((4,5-dihydro-1H,3H-[1,4]oxazepino[4,3-b]indazol-1-yl)methyl)-N-methylethanaminium chloride]",+ (LOQ≦ + <5%)
6,"Cl.c1ccc2c3n(nc2c1)CCOC3[C@H]1CCCNC1 (stereo partly drawn) [Compound 38, (3S)-3-(3,4-dihydro-1H-[1,4]oxazino[4,3-b]indazol-1-yl)piperidin-1-ium]",+ (LOQ≦ + <5%)
7,"c1ccc2c3n(nc2c1)CCOC3CNC1CC1 (stereo not drawn) [Compound 21, N-((3,4-dihydro-1H-[1,4]oxazino[4,3-b]indazol-1-yl)methyl)cyclopropan amine hydrogen chloride salt]",+ (LOQ≦ + <5%)
8,"CNC[C@H]1OCCn2nc3ccccc3c21.Cl [Compound 2, (R)-(3,4-dihydro-1H-[1,4]oxazino[4,3-b]indazol-1-yl)-N-methylmethanaminium chloride]",+ (LOQ≦ + <5%)
9,"c1ccc2c3n(nc2c1)CCOC3[C@@H]1CCCN1 (stereo partly drawn) [Compound 13, 1-((S)-pyrrolidin-2-yl)-3,4-dihydro-1H-[1,4]oxazino[4,3-b]indazole hydrochloride]",+ (LOQ≦ + <5%)
10,"c1ccc2c3n(nc2c1)CCOC3[C@@H]1CCN1 (stereo partly drawn) [Compound 64, (2S)-2-(3,4-dihydro-1H-[1,4]oxazino[4,3-b]indazol-1-yl)azetidin-1-ium chloride]",+ (LOQ≦ + <5%)
11,"Cl.c1ccc2c3n(nc2c1)CCOC31CCNC1 (stereo not drawn) [Compound 44, 3′,4′-dihydrospiro[pyrrolidine-3,1′-[1,4]oxazino[4,3-b]indazol]-1-ium chloride]",+ (LOQ≦ + <5%)
12,"Cl.c1ccc2c3n(nc2c1)CCO[C@H]3[C@@H]1COCCN1 (racemic) [Compound 46, (+/−)—(S)-3-((S)-3,4-dihydro-1H-[1,4]oxazino[4,3-b]indazol-1-yl)morpholin-4-ium chloride]",+ (LOQ≦ + <5%)
